Experiment: Solubilizing potency: solubility of hydrocortisone in aqueous solutions of cyclodextrin derivatives
Format: physicochemical
Settings: 5% (w/w) aqueous solutions of the derivative; P264 and P258 crystalline components used without heat drying

Heptakisdimethylbetacyclodextrin
Solubility Of Hydrocortisone: 8800 µg/mL

Reference: patent US6602860B1, “Crystalline mixtures of partial methyl ethers of beta-cyclodextrin and related compounds” (priority 1999, dated 2003)
